According to ChEMBL document CHEMBL1156411, “New axane and oppositane sesquiterpenes from Teclea nobilis” (J Nat Prod, 2002):
Activity calls are given as the source filed them.

Columns and labels:
Type in all cases: functional, organism-based
[1] = test system: Staphylococcus aureus; assay: Antimicrobial activity against methicillin-resistant Staphylococcus aureus
[2] = test system: Plasmodium falciparum; assay: Antiplasmodial activity against Plasmodium falciparum W2
[3] = test system: Candida albicans; assay: Antimicrobial activity against Candida albicans
[4] = test system: Plasmodium falciparum; assay: Antiplasmodial activity against Plasmodium falciparum D6
[5] = test system: Cryptococcus neoformans; assay: Antimicrobial activity against Cryptococcus neoformans
[6] = test system: Staphylococcus aureus; assay: Antimicrobial activity against Staphylococcus aureus

Measured: Activity

C=C1CC[C@H](O)[C@@]2(C)CC[C@H](C(=O)C(C)C)[C@@H]12
inactive: all assays above

C=C1CC[C@@H](O)[C@]2(C)CC[C@H](C(=O)C(C)C)[C@@H]12
inactive: all assays above
